Measured values taken from patent US12077503B2, “Substituted cyclic amides and their use as herbicides” (FMC CORPORATION, priority 2015, dated 2024).

How the values were obtained:
Type in all cases: in vivo
[1] = system: sedge, umbrella (small-flower umbrella sedge, Cyperus difformis); experiment: Test B flooded paddy test; conditions: Flood, 250 g ai/ha; 0 to 100 scale where 0 is no effect and 100 is complete control; 13 to 15 d
Procedure, shortened: (§1)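 Percent control, visually estimated after 13–15 d in the greenhouse on a 0–100 basis, compares treated pots with untreated ones; compound was put into paddy water 3 cm above the soil when plants had two leaves.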

[2] = system: ducksalad (Heteranthera limosa); experiment: Test B flooded paddy test; conditions: Flood, 250 g ai/ha; 0 to 100 scale where 0 is no effect and 100 is complete control; 13 to 15 d
Procedure, shortened: as §1

[3] = system: barnyardgrass (Echinochloa crus-galli); experiment: Test B flooded paddy test; conditions: Flood, 250 g ai/ha; 0 to 100 scale where 0 is no effect and 100 is complete control; 13 to 15 d
Procedure, shortened: as §1

rice (Oryra sativa) = experiment: Test B flooded paddy test; conditions: Flood, 250 g ai/ha; 0 to 100 scale where 0 is no effect and 100 is complete control; 13 to 15 d
Procedure, shortened: as §1

[4] = system: blackgrass (Alopecurus myosuroides); experiment: Test A postemergence
Procedure, shortened: (§2)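 Each rating is a visual injury score from 0 to 100 given about 10 d after treatment, judged against untreated controls kept alongside in the greenhouse. In loam soil–sand blend, seeds got a preemergence directed soil spray, while postemergence plants were 2 to 10 cm tall at spraying.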

[5] = system: ragweed (common ragweed, Ambrosia elatior); experiment: Test A postemergence
Procedure, shortened: as §2

[6] = system: ryegrass, Italian (Italian ryegrass, Lolium multiflorum); experiment: Test A postemergence
Procedure, shortened: as §2

corn (Zea mays) = experiment: Test A postemergence
Procedure, shortened: as §2

[7] = system: pigweed (Amaranthus retroflexus); experiment: Test A postemergence
Procedure, shortened: as §2

Kochia (Kochia scoparia) [8] = experiment: Test A postemergence
Procedure, shortened: as §2

[9] = system: wheat (Triticum aestivum); experiment: Test A postemergence
Procedure, shortened: as §2

[10] = system: giant foxtail (Setaria faberii); experiment: Test A postemergence
Procedure, shortened: as §2

[11] = system: barnyardgrass (Echinochloa crus-galli); experiment: Test A postemergence
Procedure, shortened: as §2

[12] = system: Galium (catchweed bedstraw, Galium aparine); experiment: Test A postemergence
Procedure, shortened: as §2

[13] = system: ragweed (common ragweed, Ambrosia elatior); experiment: Test A preemergence; conditions: Preemergence
Procedure, shortened: as §2

[14] = system: ryegrass, Italian (Italian ryegrass, Lolium multiflorum); experiment: Test A preemergence; conditions: Preemergence
Procedure, shortened: as §2

[15] = system: pigweed (Amaranthus retroflexus); experiment: Test A preemergence; conditions: Preemergence
Kochia (Kochia scoparia) [16] = experiment: Test A preemergence; conditions: Preemergence
Procedure, shortened: as §2

[17] = system: giant foxtail (Setaria faberii); experiment: Test A preemergence; conditions: Preemergence
Procedure, shortened: as §2

[18] = system: barnyardgrass (Echinochloa crus-galli); experiment: Test A preemergence; conditions: Preemergence
Procedure, shortened: as §2

[19] = 125 g ai/ha, postemergence, visual injury rating on 0 to 100 scale (0 no effect, 100 complete control), approx. 10 d
[20] = Postemergence, 500 g ai/ha, 0 to 100 scale where 0 is no effect and 100 is complete control
[21] = 125 g ai/ha, visual injury after approximately 10 d, 0 to 100 scale where 0 is no effect and 100 is complete control
[22] = 500 g ai/ha, visual injury approx. 10 d

O=C1NCC(c2cc(F)cc(C(F)(F)F)c2)C1C(=O)Nc1ccccc1F (stereo not drawn) [Compound 489]
Plant response rating, Sedge, Umbrella [1]: 0
Plant response rating, Ducksalad [2]: 100
Plant response rating, Barnyardgrass [3]: 65
Plant response rating, Rice (rice (Oryra sativa)): 20
Blackgrass plant response rating [4, 19]: 50
Plant response rating, Blackgrass [4, 20]: 70
Ragweed plant response rating [5, 19]: 0
Plant response rating, Ragweed [5, 20]: 30
Ryegrass, Italian plant response rating [6, 19]: 30
Plant response rating, Ryegrass, Italian [6, 20]: 50
Corn plant response rating (corn (Zea mays); [19]): 70
Plant response rating, Corn (corn (Zea mays); [20]): 80
Pigweed plant response rating [7, 19]: 0
Plant response rating, Pigweed [7, 20]: 20
Kochia plant response rating (Kochia (Kochia scoparia) [8]; [19]): 0
Plant response rating, Kochia (Kochia (Kochia scoparia) [8]; [20]): 40
Wheat plant response rating [9, 19]: 30
Plant response rating, Wheat [9, 20]: 70
Foxtail, Giant plant response rating [10, 19]: 90
Plant response rating, Foxtail, Giant [10, 20]: 90
Barnyardgrass plant response rating [11, 19]: 90
Plant response rating, Barnyardgrass [11, 20]: 90
Galium plant response rating [12, 19]: 0
Plant response rating, Galium [12, 20]: 40
Plant response rating, Ragweed [13, 21]: 30
Ragweed plant response rating (0 to 100 scale, 0 is no effect, 100 is complete control) [13, 22]: 30
Plant response rating, Ryegrass, Italian [14, 21]: 30
Ryegrass, Italian plant response rating (0 to 100 scale, 0 is no effect, 100 is complete control) [14, 22]: 20
Plant response rating, Pigweed [15, 21]: 0
Pigweed plant response rating (0 to 100 scale, 0 is no effect, 100 is complete control) [15, 22]: 40
Plant response rating, Kochia (Kochia (Kochia scoparia) [16]; [21]): 20
Kochia plant response rating (0 to 100 scale, 0 is no effect, 100 is complete control) (Kochia (Kochia scoparia) [16]; [22]): 50
Plant response rating, Foxtail, Giant [17, 21]: 90
Foxtail, Giant plant response rating (0 to 100 scale, 0 is no effect, 100 is complete control) [17, 22]: 90
Plant response rating, Barnyardgrass [18, 21]: 90
Barnyardgrass plant response rating (0 to 100 scale, 0 is no effect, 100 is complete control) [18, 22]: 90
